# According to patent US20220193068A1, “A GRK2 PROTEIN INHIBITOR COMPOUND AND A PHARMACEUTICAL COMPOSITION COMPRISING THE SAME” (CONSEJO NACIONAL DE INVESTIGACIONES CIENTÍFICAS Y TÉCNICAS …, priority 2019, published 2022):
# Columns and labels:
# [1] = biological target: T1, RGS domain of GRK2 (GRK2-K220R variant) (Bos taurus, UniProt P21146, K220R); assay: cAMP response of rH2 to amthamine in HEK293 clones overexpressing rH2 and GRK2-K220R; assay type: cell-based; settings: 40 min pretreatment, C2-C5 at 10 μM or 100 μM, L96B at 100 nM or 1 μM, 10 μM amthamine, *p<0.05
# T1 construct: expressed in transfected cells
# T1 sequence (P21146 1-689 K220R): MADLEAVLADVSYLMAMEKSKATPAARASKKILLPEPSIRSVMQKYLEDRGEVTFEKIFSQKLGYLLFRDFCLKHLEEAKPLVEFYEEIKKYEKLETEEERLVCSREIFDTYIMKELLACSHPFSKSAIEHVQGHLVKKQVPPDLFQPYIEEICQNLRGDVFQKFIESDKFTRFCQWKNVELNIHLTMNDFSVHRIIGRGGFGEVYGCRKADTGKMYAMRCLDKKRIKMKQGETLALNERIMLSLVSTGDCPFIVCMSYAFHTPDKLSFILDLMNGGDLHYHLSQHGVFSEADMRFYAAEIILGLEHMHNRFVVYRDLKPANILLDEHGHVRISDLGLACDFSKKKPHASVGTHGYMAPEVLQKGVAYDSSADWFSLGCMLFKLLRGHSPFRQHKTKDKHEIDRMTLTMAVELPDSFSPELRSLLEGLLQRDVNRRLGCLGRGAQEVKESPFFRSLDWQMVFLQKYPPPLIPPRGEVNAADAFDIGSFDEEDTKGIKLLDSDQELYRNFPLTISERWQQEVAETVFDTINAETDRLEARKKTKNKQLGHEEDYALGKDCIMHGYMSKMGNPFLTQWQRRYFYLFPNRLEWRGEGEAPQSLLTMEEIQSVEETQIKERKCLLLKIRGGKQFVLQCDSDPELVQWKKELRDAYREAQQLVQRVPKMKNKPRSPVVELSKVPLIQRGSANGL
# Description: In order to assess the effect of inhibitors of the RGS domain of GRK2, a cell model derived from HEK293 transfected cells was obtained. Such cells overexpress the histamine H2 receptor (rH2), a G-protein coupled receptor (GPCR) of the Gs type that, when activated, promotes cAMP synthesis and which is inactivated by regulatory domain-mediated desensitization of G-protein stimulation (RGS) of GRK2. The clone obtained not only overexpresses rH2 but also overexpresses a negative dominant mutant of GRK2, the GRK2-K220R variant, which cannot phosphorylate GPCRs but can inactivate them through its RGS domain. In this system, the desensitizing effect of the RGS domain of GRK2 on the cAMP response of rH2 is evident.
# Clones derived from HEK293 cells were obtained by stable and sequential transfection with pcDNA3.1Zeo(+)-HARH2 and pcDNA3-GRK2K22OR plasmids using K2 Transfection System (BIONTEX) reactive, following manufacturer's instructions and using, for a 35 mm diameter plate, a mixture A of 2.7 μg of total DNA and 150 μl of DMEM base and a mixture B of 6 μl of K2 transfection reactive and 150 μl of base DMEM. The following day, cells were plated in 96-well plates with 0.3 ml of complete DMEM per well. For clone selection, cells were incubated in selection agent-supplemented medium (50 μg/ml Zeocine or 1.2 mg/ml geneticin), following a limit dilution protocol. According to this protocol, cells were counted and plated performing serial dilutions, so as to obtain wells with con 1000, 100, 10 and 1 cell. The medium was renewed every other day by replacing 100 μl in each well with 100 μl of fresh medium of the same composition. After three weeks, several antibiotic-resistant clones were selected and afterwards plasmid expression was analyzed by Western blot.
# Adhered clones were maintained in a humidified-atmosphere oven, with 5% CO2 at 37° C., in 10% FBS-supplemented DMEM medium, 50 μg/ml gentamicin, 0.8 mg/ml geneticin and 50 μg/ml zeocin. Cells were passed by adding 0.05% trypsin solution and 0.3 mM EDTA.
# In order to assess the effect of GRK2 inhibitor compounds, clones were plated in 48-well plates at 50% confluence. […]
# Next, cells were incubated for 3 min with 1 mM IBMX, a phosphodiesterase inhibitor that prevents degradation of the cAMP produced and afterwards the rH2-Gαs-adenylate-cyclase-cAMP signaling route was stimulated for 9 minutes with the rH2-specific agonist, amthamine, at a 10 μM concentration. […] This was evaporated and cAMP levels were determined.
# cAMP in samples was quantified by adapting the linking protein-binding technique according to Davio et al, 1995.
# [2] = test system: GRK2K220R/R106A (mutated RGS domain); assay: Selectivity control: cAMP response of rH2 in HEK293 clones overexpressing rH2 and GRK2K220R/R106A; assay type: cell-based; settings: 10 μM amthamine, no significant differences
# Description: In order to assess specificity of the effect of compounds over RGS domain of GRK2, assays were carried out in a second system that overexpresses rH2 and GRK2K220R/R106A, a GRK2 double mutant negative dominant construct that lacks both kinase activity and desensitization action through RGS domain. […] The R106A mutation that inactivates the RGS domain is redundant to the effect of an inhibitory potential, thus constituting the selectivity control of the model and allowing to determine if the enhancement in the receiver response occurred as a result of an inhibition of the RGS domain, or if it was the result of a non-specific action of the compound on an unwanted target. Those compounds that also raise cAMP levels in this control system are considered to be of non-specific action.
# Since the latter mutation is redundant to the effect of a potential inhibitor of RGS domain of GRK2, this system allows us to discern whether the enhancement in the rH2 response occurred as a result of an RGS domain inhibition, or whether it resulted from a non-specific action of the compound on an unwanted target.
# HEPG2 cell line [3] = test system: HEPG2 cell line
# Description: (§1) Since hepatotoxicity is one of the main forms of toxicity in which drugs affect the body, the cytotoxicity of inhibitors was assessed using the human hepatocyte HEPG2 cell line.
# (§2) Cells were plated in a 96-well plate at a 22,000 cell/well density and incubated for 48 hours with the compounds in a concentration range of between 0.33 μM and 200 μM. Afterwards, their viability was analyzed through trypan blue exclusion method and counted in Neubauer camera.
# HEPG2 cell line [4] = assay: Viability of human hepatocyte HEPG2 cells, trypan blue exclusion; settings: 48 hours, 0.33 μM to 200 μM, versus DMSO control, C2 effect as from 10 μM
# Description: as §1, §2
effect on H2 receptor capacity of response (cAMP) [1],EC50 (HEPG2 cell line [3]) [µM],melting point [°C],Structure (SMILES),effect over rH2 capacity of response (cAMP) with GRK2 mutated in the RGS domain [2],cytotoxicity / cell viability (HEPG2 cell line [4])
enhancing effect,10.3,,"CC(=O)N1CCc2cc(NC(=O)Nc3cccc4cccnc34)ccc21 [C2, 3-(1-acetyl-2,3-dihydro-H-indol-5-yl)-1-(quinoline-8-yl)urea]",lack of effect,
enhancing effect,,,"O=C(Cc1n[nH]c(=O)c2ccccc12)Nc1cccc2ncccc12 [C5, 2-(4-oxo-3,4-dihydrophthalazin-1-yl)-N-(quinoline-5-yl)acetamide]",lack of effect,
,,202,"O=C(Nc1ccc(-c2nnco2)cc1)c1cnc2ccccc2c1 [L94C, N-[4-(1,3,4-oxadiazol-2-yl)phenyl]quinoline-3-carboxamide]",,
enhancing effect,,,"Cc1ccc2cc(C(=O)Nc3cccc(-c4nnco4)c3)c(C)nc2c1 [C3, 2,7-dimethyl-N-[3-(1,3,4-oxadiazol-2-yl)phenyl] quinoline-3-carboxamide]",lack of effect,
,,,"COC(=O)c1ccc(NC(=O)c2ccc3ccccc3c2)cc1 [L96B, methyl 4-(naphthalene-2-amido)benzoate]",,did not affect cell viability
enhancing effect,,,"O=C(CCc1ccc2ccccc2c1)N1CCCC(n2cccn2)C1 (centres unmarked) [C4, 3-(naphtalen-2-yl)-1-[3-(1H-pyrazol-1-yl)piperidin-1-yl]propan-1-one]",lack of effect,
